Assay results: ChEMBL document CHEMBL1201862, “PubChem BioAssay data set” (2004)
Calls of active or inactive are those of the source.

Columns and labels:
[1] = Luminescence Cell-Based Dose Confirmation HTS to Identify Inhibitors of Platelet Dense Granule Release. [Related pubchem assays: 1663 (Primary HTS), 1678 (Summary of Project)]; type: functional
[2] = target: Luciferin 4-monooxygenase (Photinus pyralis, UniProt P08659); test: firefly luciferase enzyme inhibitors, dose response, biochemical, luminescence (AID 1891)
Sequence of Luciferin 4-monooxygenase (P08659 whole entry): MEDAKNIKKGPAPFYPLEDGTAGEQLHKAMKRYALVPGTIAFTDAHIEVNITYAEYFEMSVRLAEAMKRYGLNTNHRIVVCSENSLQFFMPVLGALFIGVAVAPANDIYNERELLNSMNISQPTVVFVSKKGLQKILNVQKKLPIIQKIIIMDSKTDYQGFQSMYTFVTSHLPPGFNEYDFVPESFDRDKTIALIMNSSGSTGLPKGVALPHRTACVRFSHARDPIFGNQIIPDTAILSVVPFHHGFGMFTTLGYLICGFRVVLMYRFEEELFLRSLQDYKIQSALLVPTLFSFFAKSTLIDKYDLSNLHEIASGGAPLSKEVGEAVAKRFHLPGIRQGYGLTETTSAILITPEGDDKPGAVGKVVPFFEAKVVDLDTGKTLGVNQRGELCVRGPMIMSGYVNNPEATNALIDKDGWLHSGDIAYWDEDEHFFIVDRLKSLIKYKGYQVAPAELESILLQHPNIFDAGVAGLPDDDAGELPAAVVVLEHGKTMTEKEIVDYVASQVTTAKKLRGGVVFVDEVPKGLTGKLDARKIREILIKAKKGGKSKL

Cytochrome P450 2C9 = Cytochrome P450 2C9 (Homo sapiens, UniProt P11712)
Sequence of Cytochrome P450 2C9 (P11712 whole entry): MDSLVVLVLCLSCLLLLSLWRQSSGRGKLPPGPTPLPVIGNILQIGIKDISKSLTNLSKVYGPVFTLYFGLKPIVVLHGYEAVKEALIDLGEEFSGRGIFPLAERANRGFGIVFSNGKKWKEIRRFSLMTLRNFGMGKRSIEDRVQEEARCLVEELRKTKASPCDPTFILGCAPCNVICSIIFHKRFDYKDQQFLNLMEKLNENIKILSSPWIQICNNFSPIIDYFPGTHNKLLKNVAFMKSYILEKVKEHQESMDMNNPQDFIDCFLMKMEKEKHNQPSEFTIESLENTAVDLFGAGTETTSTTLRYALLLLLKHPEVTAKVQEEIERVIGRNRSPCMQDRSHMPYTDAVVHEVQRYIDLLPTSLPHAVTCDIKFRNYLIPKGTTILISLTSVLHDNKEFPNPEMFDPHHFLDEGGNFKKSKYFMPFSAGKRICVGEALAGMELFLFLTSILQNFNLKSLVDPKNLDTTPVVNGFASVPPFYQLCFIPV

cells = type: functional
BJ [3] = test: cytotoxicity toward BJ-TERT-LT-ST fibroblasts, dose response, cell-based, RAS-independent, luminescence (AID 1935); type: functional; conditions: Homo sapiens;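 note: BJ fibroblasts immortalized with TERT plus LT and ST oncogenes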
BJ [4] = test: cells; type: functional, cell-based; conditions: Homo sapiens
[5] = cytotoxicity toward DRD oncogenic fibroblasts, dose response, cell-based, non-viral oncogenic, luminescence (AID 1934); type: functional; conditions: Homo sapiens
BJ [6] = test: cytotoxicity toward BJ-TERT fibroblasts, dose response, cell-based, RAS-independent, luminescence (AID 1933); type: functional; conditions: Homo sapiens
Cytochrome P450 2C19 = Cytochrome P450 2C19 (Homo sapiens, UniProt P33261); test: Cytochrome panel assay with activity outcomes. Panel member name: p450-cyp2c19 Compounds with AC50 equal or less than 10 uM are considered active; type: functional; conditions: read-out: AC50
Sequence of Cytochrome P450 2C19 (P33261 whole entry): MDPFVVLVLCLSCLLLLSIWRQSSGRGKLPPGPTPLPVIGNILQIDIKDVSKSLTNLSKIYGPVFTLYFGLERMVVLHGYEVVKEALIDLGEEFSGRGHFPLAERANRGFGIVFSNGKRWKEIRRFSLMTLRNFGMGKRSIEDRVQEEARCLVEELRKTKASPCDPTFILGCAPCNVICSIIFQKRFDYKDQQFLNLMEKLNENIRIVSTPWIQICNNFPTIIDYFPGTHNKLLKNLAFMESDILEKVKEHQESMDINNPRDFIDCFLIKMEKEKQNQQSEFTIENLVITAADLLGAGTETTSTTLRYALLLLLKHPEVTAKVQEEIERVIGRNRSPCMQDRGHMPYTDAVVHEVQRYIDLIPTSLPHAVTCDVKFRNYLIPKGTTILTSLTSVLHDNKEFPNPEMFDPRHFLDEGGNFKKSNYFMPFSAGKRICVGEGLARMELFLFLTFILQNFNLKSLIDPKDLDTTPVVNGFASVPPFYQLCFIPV

Cytochrome P450 3A4 = Cytochrome P450 3A4 (Homo sapiens, UniProt P08684);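 note: CYP3A4 tested as one member of a cytochrome P450 panel screen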
Sequence of Cytochrome P450 3A4 (P08684 whole entry): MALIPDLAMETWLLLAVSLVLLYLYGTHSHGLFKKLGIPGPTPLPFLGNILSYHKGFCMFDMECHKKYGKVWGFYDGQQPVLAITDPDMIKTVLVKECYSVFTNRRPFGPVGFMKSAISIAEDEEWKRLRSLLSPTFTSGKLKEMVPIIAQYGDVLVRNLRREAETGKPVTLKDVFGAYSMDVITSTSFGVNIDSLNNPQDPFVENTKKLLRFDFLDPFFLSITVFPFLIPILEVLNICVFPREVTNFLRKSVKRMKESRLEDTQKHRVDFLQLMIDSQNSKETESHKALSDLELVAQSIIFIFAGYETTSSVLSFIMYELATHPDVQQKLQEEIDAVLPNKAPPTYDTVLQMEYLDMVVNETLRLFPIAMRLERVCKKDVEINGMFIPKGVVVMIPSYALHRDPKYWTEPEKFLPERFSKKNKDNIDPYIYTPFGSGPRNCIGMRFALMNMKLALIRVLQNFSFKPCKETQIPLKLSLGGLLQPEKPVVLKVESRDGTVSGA

[7] = P. falciparum Dd2 growth inhibitors, dose response, SYBR Green, cherry-picked samples (AID 1159567); type: functional, cell-based
[8] = Shn3 3'UTR reporter inhibitors, dose response, cell-based, Clone20 osteoblasts, firefly luciferase, cherry-picked (AID 624132); type: functional;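 note: firefly luciferase luminescence from reporter carrying the Shn3 3'UTR in osteoblasts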
[9] = control 3'UTR Renilla luciferase suppression, dose response, counter-screen for Shn3 inhibitor project, cell-based, Clone20-Shn3RL, cherry-picked (AID 624133); type: functional
[10] = HepG2 cell cytotoxicity, dose response, cytotoxicity control for Shn3 inhibitor project, CellTiter-Glo, cherry-picked (AID 624134); type: functional, cell-based
[11] = target: T1, Ubiquitin-conjugating enzyme E2 N (Homo sapiens, UniProt P61088); type: functional;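 note: Dose-response confirmation in a TR-FRET assay detecting UBC13-driven polyubiquitin chain formation, inhibition measured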
T1 sequence (P61088 whole entry): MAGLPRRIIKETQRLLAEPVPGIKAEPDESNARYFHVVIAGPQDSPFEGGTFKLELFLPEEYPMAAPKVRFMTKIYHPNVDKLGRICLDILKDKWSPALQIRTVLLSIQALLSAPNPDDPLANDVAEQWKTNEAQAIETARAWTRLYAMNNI

Genome polyprotein = Genome polyprotein (dengue virus type 2, UniProt P29990); test: Dengue-2 NS5 methyltransferase inhibitors, primary screen, biochemical, confirmation dose response (AID 588689); type: functional
Sequence of Genome polyprotein (P29990 2492-3391 limits assumed): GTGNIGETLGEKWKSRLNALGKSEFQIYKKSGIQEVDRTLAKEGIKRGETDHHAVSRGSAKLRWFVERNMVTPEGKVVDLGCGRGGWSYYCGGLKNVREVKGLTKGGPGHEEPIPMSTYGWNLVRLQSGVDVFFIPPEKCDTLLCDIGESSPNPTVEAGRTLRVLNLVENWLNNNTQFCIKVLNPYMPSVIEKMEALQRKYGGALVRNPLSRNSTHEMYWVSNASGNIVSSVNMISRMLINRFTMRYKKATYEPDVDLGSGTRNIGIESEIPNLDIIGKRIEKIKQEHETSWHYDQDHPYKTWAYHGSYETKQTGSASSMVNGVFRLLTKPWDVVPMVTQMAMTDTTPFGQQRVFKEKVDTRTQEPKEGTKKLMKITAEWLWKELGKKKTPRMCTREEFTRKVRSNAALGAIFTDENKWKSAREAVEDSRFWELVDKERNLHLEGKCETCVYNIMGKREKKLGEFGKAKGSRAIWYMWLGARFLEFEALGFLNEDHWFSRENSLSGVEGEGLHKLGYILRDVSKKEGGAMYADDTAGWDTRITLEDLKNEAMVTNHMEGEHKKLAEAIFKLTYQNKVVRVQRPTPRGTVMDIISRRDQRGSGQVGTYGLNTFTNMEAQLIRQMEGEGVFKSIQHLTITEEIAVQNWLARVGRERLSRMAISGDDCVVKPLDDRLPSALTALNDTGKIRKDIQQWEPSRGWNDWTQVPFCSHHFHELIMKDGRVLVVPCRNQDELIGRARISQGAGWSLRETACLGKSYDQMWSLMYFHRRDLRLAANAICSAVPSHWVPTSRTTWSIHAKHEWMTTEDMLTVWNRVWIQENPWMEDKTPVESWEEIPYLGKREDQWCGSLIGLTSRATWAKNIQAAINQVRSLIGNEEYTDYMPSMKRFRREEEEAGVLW

[12] = inhibitors of firefly luciferase expression or activity, dose response, H4 neuroglioma cells, luminescence (AID 1990); type: functional, cell-based
[13] = Luminescence Cell-Based Dose Response HTS to Identify Inhibitors of 5'UTR Stem-Loop Driven Prion Protein mRNA Translation in H4 Neuroglioblastoma Cells. [Related pubchem assays: 1827 (Project Summary), 1813 (Primary HTS)]; type: functional
Cytochrome P450 1A2 = target: T2, Cytochrome P450 1A2 (Homo sapiens, UniProt P05177);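 note: PubChem cytochrome P450 panel assay, CYP1A2 panel member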
T2 sequence (P05177 whole entry): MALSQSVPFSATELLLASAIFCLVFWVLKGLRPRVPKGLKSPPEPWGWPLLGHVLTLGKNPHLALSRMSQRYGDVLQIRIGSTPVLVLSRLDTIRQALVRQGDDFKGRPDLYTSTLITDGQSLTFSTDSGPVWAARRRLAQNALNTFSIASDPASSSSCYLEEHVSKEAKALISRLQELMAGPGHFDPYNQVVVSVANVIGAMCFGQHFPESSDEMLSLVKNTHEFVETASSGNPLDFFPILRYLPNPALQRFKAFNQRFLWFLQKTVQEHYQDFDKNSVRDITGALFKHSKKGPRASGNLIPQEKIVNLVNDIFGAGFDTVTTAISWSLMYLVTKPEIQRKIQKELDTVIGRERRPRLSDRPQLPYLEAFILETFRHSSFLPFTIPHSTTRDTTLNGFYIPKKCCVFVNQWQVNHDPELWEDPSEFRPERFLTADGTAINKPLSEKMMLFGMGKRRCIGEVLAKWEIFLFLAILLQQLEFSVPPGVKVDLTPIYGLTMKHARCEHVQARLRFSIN

[14] = growth suppression of beta-catenin-knockout colon cells, dose response, cell-based, HCT116, human colon tumor (AID 1045); type: functional;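 note: HCT116 colon tumor cells with beta catenin knocked out; cells exposed to compound for 60 hours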
[15] = growth suppression of PTEN-null colon cells, dose response, cell-based, HCT116 PTEN knockout (AID 1047); type: functional;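 note: HCT116 colon tumor cells with PTEN knocked out; cells exposed to compound for 60 hours before readout; potency for loss of cell viability measured by luminescence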
[16] = Luminescence Cell-Based Dose Retest to Confirm Inhibitors of Cancer Stem Cells. [Related pubchem assays (depositor defined):AID2717, AID2721]; type: functional; conditions: Homo sapiens
[17] = HEp-2 cell cytotoxicity, dose response, cytotoxicity control for RSV inhibitor project, HTS (AID 2410); type: functional; conditions: human respiratory syncytial virus

For `CCOC(=O)N1CCN(C(=O)CNC2CCCCCCC2)CC1`, the EC50 [1] was 16.7 µM (active) and the EC50 [2] was > 112 µM (not active).

With `CN(C)c1nc(-c2cccnc2)nc2ccccc12` the AC50 (Cytochrome P450 2C9) was “inconclusive”.

In the case of `COc1cccc2cc(-c3nc4ccccc4[nH]3)c(=O)oc12`, the IC50 (cells) is reported as < 0.1 µM (active).

With `O=C(CCc1ccccc1)NNC(=O)C1CCCCC1` the AC50 (Cytochrome P450 2C9) was “inconclusive”.

For `COc1ccc(CCN2C(=O)c3ccccc3NC2c2cc(Cl)c(O)c(OC)c2)cc1` (centres undefined), the EC50 (BJ [3]) was 25.7 µM (inconclusive), the EC50 (BJ [4]) was > 150 µM (inconclusive) and the EC50 [5] was 12.9 µM (active). The EC50 (BJ [6]) was 11.3 µM (inconclusive).

In the case of `O=C(/C=C/c1ccccc1Cl)NCCN1CCOCC1`, the AC50 (Cytochrome P450 2C9) is reported as “inconclusive”, the AC50 (Cytochrome P450 2C19) is reported as 5.01 µM (inconclusive) and the AC50 (Cytochrome P450 3A4) is reported as 15.8 µM (inconclusive).

In the case of `COc1ccccc1S(=O)(=O)N1[C@@H]2CNC[C@H]1[C@H]2c1ccc(-c2ccccc2C)cc1`, the AC50 [7] is reported as 27.7 µM (active).

In the case of `COc1ccc(-c2noc(CCC(=O)NCCCN3CCC(Cc4ccccc4)CC3)n2)cc1`, the EC50 (BJ [3]) is reported as > 150 µM (not active), the EC50 (BJ [4]) is reported as > 150 µM (not active) and the AC50 [8] is reported as 4.03 µM (active). The AC50 [9] was 20.7 µM (active), the AC50 [10] was 30.4 µM (active) and the EC50 [5] was 18.5 µM (active). For the same compound, the EC50 (BJ [6]) was 23.2 µM (active) and the IC50 [11] was > 20 µM (inactive).

In the case of `CCC(C)NC(=O)c1cc(-c2ccccc2O)on1` (centres undefined), the EC50 [1] is reported as > 112 µM (not active) and the EC50 [2] is reported as > 112 µM (not active).

In the case of `Cc1ccc(C)c(NC(=O)Cn2nnc(C(=O)Nc3c(C)cccc3C)c2N)c1`, the AC50 (Cytochrome P450 2C9) is reported as “inconclusive” and the AC50 (Cytochrome P450 2C19) is reported as 17.8 µM (inconclusive).

For `O=C(O)c1ccccc1NS(=O)(=O)c1cccc(NS(=O)(=O)c2cc(Br)ccc2Br)c1`, the IC50 (Genome polyprotein) was 28.3 µM (active).

With `COc1ccc(-n2c(SC(C)C(=O)Nc3ncc(Cl)cc3Cl)nc3ccccc32)cc1` (centres undefined) the EC50 (BJ [3]) was > 150 µM (not active), the EC50 (BJ [4]) was 22.3 µM (active) and the EC50 [12] was 12.6 µM (active). The EC50 [13] was 38.4 µM (active), the EC50 [5] was 89.7 µM (active) and the EC50 (BJ [6]) was 29.8 µM (active).

In the case of `COC(=O)CC1=NN(c2ccccc2)C(=O)/C1=C\c1ccc(OC)cc1`, the IC50 (Genome polyprotein) is reported as 33.3 µM (active).

For `O=C(Cc1ccc(Cl)cc1)NNC(=O)Nc1cccc2ccccc12`, the AC50 (Cytochrome P450 2C9) was “inconclusive” and the AC50 (Cytochrome P450 1A2) was 2.51 µM (inconclusive).

For `Cc1cccc(C(=O)O/N=C(\N)c2ccccn2)c1`, the EC50 [1] was 20.4 µM (active) and the EC50 [2] was 7.75 µM (active).

In the case of `C[C@H](NC1=NS(=O)(=O)c2ccccc21)C(=O)OCc1cc([N+](=O)[O-])cc2c1OCOC2`, the EC50 [1] is reported as > 112 µM (not active) and the EC50 [2] is reported as > 112 µM (not active).

With `COCCCNC(=O)c1cc2c(=O)n(C)c3ccccc3c2n1C` the EC50 [14] was 15.4 µM (active) and the EC50 [15] was 14.4 µM (active).

In the case of `CCc1ccc([C@@H]2CC=C(C(=O)O)[C@H](c3ccc(Cl)cc3)N2S(=O)(=O)c2ccc(C)cc2)cc1`, the AC50 [16] is reported as 7.7 µM (active), the IC50 (Genome polyprotein) is reported as 40.3 µM (active) and the CC50 [17] is reported as 11.6 µM (active).
